Each structure is given as a SMILES string. Counter-ions that a name gives are not always drawn. A value given as a limit tells only on which side of the number the result lay.

In this experiment the target is T1, human neurokinin-1-receptor (NK1R) (Homo sapiens, UniProt P25103).
T1 construct: expressed in transfected cells
T1 sequence (P25103 whole entry): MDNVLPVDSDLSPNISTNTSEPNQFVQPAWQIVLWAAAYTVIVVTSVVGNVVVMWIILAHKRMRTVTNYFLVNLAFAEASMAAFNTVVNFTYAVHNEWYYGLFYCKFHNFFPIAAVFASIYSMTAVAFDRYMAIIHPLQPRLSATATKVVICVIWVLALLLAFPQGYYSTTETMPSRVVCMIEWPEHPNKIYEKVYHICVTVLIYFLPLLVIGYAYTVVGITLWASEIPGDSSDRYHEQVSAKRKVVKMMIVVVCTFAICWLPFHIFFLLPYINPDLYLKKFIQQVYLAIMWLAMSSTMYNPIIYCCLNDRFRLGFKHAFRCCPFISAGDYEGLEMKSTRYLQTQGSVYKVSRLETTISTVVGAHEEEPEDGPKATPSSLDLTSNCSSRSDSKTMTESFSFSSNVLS
Kind of experiment: Substance P antagonism assay: 125I-substance P binding to human NK1R expressed in COS or CHO cells. The conditions noted are these: 125I-substance P displacement, 4° C. or room temperature, 1 hour. How it is done:
To express the cloned human neurokinin-1-receptor (NK1R) transiently in COS, the cDNA for the human NK1R was cloned into the expression vector pCDM9 which was derived from pCDM8 (INVITROGEN) by inserting the ampicillin resistance gene (nucleotide 1973 to 2964 from BLUESCRIPT SK+ (trademark, STRATAGENE, La Jolla, Calif., USA)) into the Sac II site. Transfection of 20 ug of the plasmid DNA into 10 million COS cells was achieved by electroporation in 800 μof transfection buffer (135 mM NaCl, 1.2 mM CaCl2, 1.2 mM MgCl2 2.4 mM K2 HPO4, 0.6 mM KH2 PO4, 10 mM glucose, 10 mM N-2-hydroxyethyl-piperazine-N'-2-ethane sulphonic acid (HEPES) pH 7.4) at 260 V and 950 μusing the IBI GENEZAPPER (trademark IBI, New Haven, Conn., USA). The cells were incubated in 10% fetal calf serum, 2 mM glutamine, 100 U/ml penicillin-streptomycin, and 90% DMEM media (GIBCO, Grand Island, N.Y., USA) in 5% CO2 at 37° C. for three days before the binding assay.
To establish a stable cell line expressing cloned human NK1R, the cDNA was subcloned into the vector pRcCMV (INVITROGEN). Transfection of 20 ug of the plasmid DNA into CHO cells was achieved by electroporation in 800 μl of transfection buffer supplemented with 0.625 mg/ml Herring sperm DNA at 300 V and 950 μF using the IBI GENEZAPPER (IBI). The transfected cells were incubated in CHO media [10% fetal calf serum, 100 U/ml penicillin-streptomycin, 2 mM glutamine, 1/500 hypoxanthine-thymidine (ATCC), 90% IMDM media (JRH BIOSCIENCES, Lenexa, Kans., USA), 0.7 mg/ml G418 (GIBCO)] in 5% CO2 at 37° C. until colonies were visible. Each colony was separated and propagated. The cell clone with the highest number of human NK1R was selected for subsequent applications such as drug screening.
The binding assay of human NK1R expressed in either COS or CHO cells is based on the use of ^125 I-substance P (^125 I-SP, from DU PONT, Boston, Mass.) as a radioactively labeled ligand which competes with unlabeled substance P or any other ligand for binding to the human NK1R. Monolayer cell cultures of COS or CHO were dissociated by the non-enzymatic solution (SPECIALTY MEDIA, Lavellette, N.J.) and resuspended in appropriate volume of the binding buffer (50 mM Tris pH 7.5, 5 mM MnCl2, 150 mM NaCl, 0.04 mg/ml bacitracin, 0.004 mg/ml leupeptin, 0.2 mg/ml BSA, 0.01 mM phosphoramidon) such that 200 μl of the cell suspension would give rise to about 10,000 cpm of specific ^125 I-SP binding (approximately 50,000 to 200,000 cells). In the binding assay, 200 ul of cells were added to a tube containing 20 ul of 1.5 to 2.5 nM of ^125 I-SP and 20 μl of unlabeled substance P or any other test compound. The tubes were incubated at 4° C. or at room temperature for 1 hour with gentle shaking. The bound radioactivity was separated from unbound radioactivity by GF/C filter (BRANDEL, Gaithersburg, Md.) which was prewetted with 0.1% polyethylenimine. The filter was washed with 3 ml of wash buffer (50 mM Tris pH 7.5, 5 mM MnCl2, 150 mM NaCl) three times and its radioactivity was determined by gamma counter.
As a reminder, the IC50 is the midpoint of a concentration-inhibition curve. Low readings indicate higher potency, high ones lower potency. For the compound `COc1cccc(C(Cc2ccccc2)C2C(OCc3cc(C(F)(F)F)cc(C(F)(F)F)c3)C3CCN2CC3)c1` (single isomer, unassigned) [4: ISOMER A], the IC50 amounted to 10 nM.

The compound `FC(F)(F)c1cc(COC2C3CCN(CC3)C2C(c2ccccc2)C2CCCCC2)cc(C(F)(F)F)c1` (stereo not drawn) [Example 5, 3-(3,5-Bis(trifluoromethyl)phenyl)methyloxy-2-(α-cyclohexylbenzyl)-1-azabicyclo[2.2.2]octane oxalate hemihydrate] displayed a half-maximal inhibitory concentration (IC50) of 3 nM.

The compound `COc1cccc(C(Cc2ccccc2)C2C(OCc3cc(C(F)(F)F)cc(C(F)(F)F)c3)C3CCN2CC3)c1` (single isomer, unassigned) [4: ISOMER B] returned an IC50 of 1.8 nM.

`FC(F)(F)c1cc(COC2C3CCN(CC3)C2C(Cc2ccccc2)c2ccccc2)cc(C(F)(F)F)c1` (single isomer, unassigned) [2: ISOMER C] showed an IC50 greater than 100 nM.

`FC(F)(F)c1cc(COC2C3CCN(CC3)C2C(Cc2ccccc2)c2ccccc2)cc(C(F)(F)F)c1` (single isomer, unassigned) [2: ISOMER A]: the IC50 is 4.5 nM.

As for `COc1ccc(C(Cc2ccccc2)C2C(OCc3cc(C(F)(F)F)cc(C(F)(F)F)c3)C3CCN2CC3)cc1` (single isomer, unassigned) [3: ISOMER A], the half-inhibitory concentration (IC50) was determined as 3 nM.

Consider `FC(F)(F)c1cc(COC2C3CCN(CC3)C2C(Cc2ccccc2)c2ccccc2)cc(C(F)(F)F)c1` (single isomer, unassigned) [2: ISOMER B], for which the IC50 amounted to 6.3 nM.

With `Cc1cc(C)cc(COC2C3CCN(CC3)C2C(Cc2ccccc2)c2ccccc2)c1` (single isomer, unassigned) [1: ISOMER A], the IC50 came to 2.4 nM.

`Cc1cc(C)cc(COC2C3CCN(CC3)C2C(Cc2ccccc2)c2ccccc2)c1` (single isomer, unassigned) [1: ISOMER B]: the IC50 worked out at 1.8 nM.

The compound `Cc1cc(C)cc(COC2C3CCN(CC3)C2C(Cc2ccccc2)c2ccccc2)c1` (single isomer, unassigned) [1: ISOMER C] yielded an IC50 greater than 100 nM.

These data come from patent publication US5288730A, “Azabicyclic compounds, pharmaceutical compositions containing them and their use in therapy” (Merck Sharp & Dohme Limited, priority 1991, dated 1994).
